These results are taken from ChEMBL document CHEMBL2346651, “Structure-activity relationship study of tachykinin peptides for the development of novel neurokinin-3 receptor selective agonists” (Bioorg Med Chem, 2013).

Residues, ends and D or L forms follow the SMILES beside them.

Experiment [1] deals with T1, Substance-K receptor (Homo sapiens) (UniProt P21452).
T1 sequence (whole entry): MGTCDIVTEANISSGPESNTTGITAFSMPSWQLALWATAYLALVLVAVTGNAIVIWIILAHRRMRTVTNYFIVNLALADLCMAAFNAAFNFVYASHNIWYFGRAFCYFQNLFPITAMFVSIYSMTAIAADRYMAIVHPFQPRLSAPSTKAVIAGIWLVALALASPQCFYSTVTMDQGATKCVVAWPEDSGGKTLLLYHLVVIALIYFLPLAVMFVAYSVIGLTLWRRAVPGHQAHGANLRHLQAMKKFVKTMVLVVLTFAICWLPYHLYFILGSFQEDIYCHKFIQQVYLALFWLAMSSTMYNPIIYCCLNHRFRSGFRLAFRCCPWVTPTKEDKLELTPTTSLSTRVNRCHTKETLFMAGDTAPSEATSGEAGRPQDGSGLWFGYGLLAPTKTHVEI
The experiment can be described thus: Displacement of [125I]-NKA from NK2R (unknown origin) transfected in CHO cells at 10 uM by gamma counting analysis. It counts as cell-based.

For experiment [2], the target named is Substance-P receptor (Homo sapiens) (UniProt P25103). In words: Displacement of [125I]-BH-SP from NK1R (unknown origin) transfected in CHO cells at 10 uM by gamma counting analysis. It counts as cell-based. For orientation: Displacement assays read how much labelled ligand stays bound in the presence of the test substance.
In experiment [3] the target is T2, Neuromedin-K receptor (Homo sapiens, UniProt P29371).
T2 sequence (P29371 whole entry): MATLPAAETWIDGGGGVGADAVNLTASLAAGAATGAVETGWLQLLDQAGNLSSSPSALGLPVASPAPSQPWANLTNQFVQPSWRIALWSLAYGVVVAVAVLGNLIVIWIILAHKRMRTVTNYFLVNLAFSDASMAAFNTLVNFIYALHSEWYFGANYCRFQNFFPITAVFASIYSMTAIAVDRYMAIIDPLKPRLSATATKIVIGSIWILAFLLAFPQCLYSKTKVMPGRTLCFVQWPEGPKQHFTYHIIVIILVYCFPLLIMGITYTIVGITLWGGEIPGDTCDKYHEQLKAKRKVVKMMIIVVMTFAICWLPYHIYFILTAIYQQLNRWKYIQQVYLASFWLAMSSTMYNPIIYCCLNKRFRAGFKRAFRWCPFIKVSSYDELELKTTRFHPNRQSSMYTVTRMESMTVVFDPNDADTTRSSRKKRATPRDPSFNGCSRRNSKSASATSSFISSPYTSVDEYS
The experiment can be described thus: Agonist activity at NK3R (unknown origin) transfected in CHO cells assessed as calcium influx […]. It counts as functional, cell-based.

Experiment [4] has as its target T2, Neuromedin-K receptor. The experiment can be described thus: Displacement of ([125I]-His3, MePhe7)-NKB from NK3R (unknown origin) transfected in CHO cells by gamma counting analysis. It counts as cell-based.

Chain of Substance-P receptor (Homo sapiens) (P25103 whole entry): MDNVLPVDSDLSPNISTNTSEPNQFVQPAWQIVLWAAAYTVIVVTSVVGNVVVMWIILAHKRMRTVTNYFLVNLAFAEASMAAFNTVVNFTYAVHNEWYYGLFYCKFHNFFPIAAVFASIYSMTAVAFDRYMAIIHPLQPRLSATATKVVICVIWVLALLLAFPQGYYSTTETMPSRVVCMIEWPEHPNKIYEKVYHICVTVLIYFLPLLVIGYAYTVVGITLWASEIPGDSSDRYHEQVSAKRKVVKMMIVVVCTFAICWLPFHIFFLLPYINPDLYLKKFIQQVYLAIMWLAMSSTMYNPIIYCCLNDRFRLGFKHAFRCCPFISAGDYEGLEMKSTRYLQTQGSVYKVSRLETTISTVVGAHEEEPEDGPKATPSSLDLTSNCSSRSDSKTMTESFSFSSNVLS

On to `CSCC[C@H](NC(=O)[C@H](CC(C)C)NC(=O)CNC(=O)[C@H](Cc1ccccc1)N(C)C(=O)[C@H](Cc1ccccc1)NC(=O)[C@H](Cc1ccc(O)cc1)NC(=O)[C@H](CC(=O)O)NC(=O)[C@H](Cc1cnc[nH]1)NC(=O)[C@H](CCSC)NC(=O)[C@@H](N)CC(=O)O)C(N)=O` (HELM PEPTIDE1{D.M.H.D.Y.F.[meF].G.L.M.[am]}$$$$V2.0), for which the inhibition in experiment [1] is 51%; in experiment [2], < 10%. For the same compound, in experiment [3], the EC50 was found to be 0.072 nM. For the same compound, the half-inhibitory concentration (IC50) in experiment [4] came out at 1.5 nM.
For `CC[C@H](C)[C@H](NC(=O)[C@H](Cc1ccccc1)NC(=O)[C@H](C)NC(=O)[C@H](CC(=O)O)NC(=O)[C@H](CCCCN)NC(=O)[C@H](CO)NC(=O)[C@@H]1CCCN1C(=O)[C@@H]1CCC(=O)N1)C(=O)NCC(=O)N[C@@H](CC(C)C)C(=O)N[C@@H](CCSC)C(N)=O` [ELEDOISIN] (HELM PEPTIDE1{[Glp].P.S.K.D.A.F.I.G.L.M.[am]}$$$$V2.0), the inhibition in experiment [1] came to 95%; in experiment [2] it was 100%. Besides, the 50% inhibitory concentration (IC50) in experiment [4] came to 96 nM.
Consider `CSCC[C@H](NC(=O)[C@H](CC(C)C)NC(=O)CNC(=O)[C@H](Cc1ccccc1)N(C)C(=O)[C@H](Cc1ccccc1)NC(=O)[C@H](CC(=O)O)NC(=O)[C@H](CC(=O)O)NC(=O)[C@@H]1CCCN1C(=O)[C@H](CCCN=C(N)N)NC(=O)[C@@H]1CCCN1C(=O)[C@@H](N)CCCCN)C(N)=O` (HELM PEPTIDE1{K.P.R.P.D.D.F.[meF].G.L.M.[am]}$$$$V2.0), for which the EC50 in experiment [3] stood at 5.04 nM. In experiment [4], this compound registered an IC50 of 31 nM.
The matching figures for `CSCC[C@H](NC(=O)[C@H](CC(C)C)NC(=O)CNC(=O)[C@H](Cc1ccccc1)N(C)C(=O)[C@H](Cc1ccccc1)NC(=O)[C@H](CCCN=C(N)N)NC(=O)[C@H](CC(=O)O)NC(=O)[C@H](Cc1cnc[nH]1)NC(=O)[C@H](CCSC)NC(=O)[C@@H](N)CC(=O)O)C(N)=O` (HELM PEPTIDE1{D.M.H.D.R.F.[meF].G.L.M.[am]}$$$$V2.0): 0.08 nM and 2.5 nM.
Regarding `CSCC[C@H](NC(=O)[C@H](CC(C)C)NC(=O)CNC(=O)[C@@H](NC(=O)[C@H](Cc1ccccc1)NC(=O)[C@H](CCC(N)=O)NC(=O)[C@H](CC(=O)O)NC(=O)[C@H](CO)NC(=O)[C@H](CCCCN)NC(=O)[C@@H]1CCCN1C(=O)[C@@H](NC(=O)[C@@H](N)CC(=O)O)C(C)C)C(C)C)C(N)=O` [KASSININ], the concentration giving a half-maximal response (EC50) in experiment [3] came out at 0.21 nM. The half-inhibitory concentration (IC50) in experiment [4] is 100 nM.
For the compound `CSCC[C@H](NC(=O)[C@H](CC(C)C)NC(=O)CNC(=O)[C@H](Cc1ccccc1)N(C)C(=O)[C@H](Cc1ccccc1)NC(=O)[C@H](CC(=O)O)NC(=O)[C@H](CC(=O)O)NC(=O)[C@@H]1CCCN1C(=O)[C@H](CCCNC(=N)N)NC(=O)[C@@H]1CCCN1C(=O)[C@@H](N)CCCCN)C(N)=O` (HELM PEPTIDE1{K.P.R.P.D.D.F.[meF].G.L.M.[am]}$$$$V2.0), the figures for the inhibition in experiment [1] and in experiment [2] were < 10% and 26%, respectively.
The matching figures for H-KPRPDQFYGLM-NH2: 95% and 101%.
Turning to H-KPRPDQFYGLM-NH2 [BUFOKININ], in experiment [3], the EC50 came to 10.7 nM. The compound also came in with an IC50 in experiment [4] of 2990 nM.
Regarding `CSCC[C@H](NC(=O)[C@H](CC(C)C)NC(=O)CNC(=O)[C@H](Cc1ccccc1)N(C)C(=O)[C@H](Cc1ccccc1)NC(=O)[C@H](CCCNC(=N)N)NC(=O)[C@H](CC(=O)O)NC(=O)[C@H](Cc1cnc[nH]1)NC(=O)[C@H](CCSC)NC(=O)[C@@H](N)CC(=O)O)C(N)=O` (HELM PEPTIDE1{D.M.H.D.R.F.[meF].G.L.M.[am]}$$$$V2.0), the inhibition in experiment [1] amounted to 62%; in experiment [2] it was 60%.
On to `CSCC[C@H](NC(=O)[C@H](CC(C)C)NC(=O)CNC(=O)[C@H](Cc1ccc(O)cc1)NC(=O)[C@H](Cc1ccccc1)NC(=O)[C@H](CCCCN)NC(=O)[C@H](CC(N)=O)NC(=O)[C@@H]1CCCN1C(=O)[C@H](CC(=O)O)NC(=O)[C@H](C)NC(=O)[C@@H]1CCC(=O)N1)C(N)=O` [PHYSALAEMIN], for which, in experiment [3], the EC50 was 3.36 nM. Moreover, the concentration for half-maximal inhibition (IC50) in experiment [4] was 1550 nM.

What is called inhibition is the change of the read-out against control, counted positive when it falls. The EC50 is the midpoint of the concentration-response curve. Usually IC50 stands for the concentration that gives 50% inhibition.
